According to patent publication US7923440B2, “Method of treating or preventing immune mediated disorders and pharmaceutical formulation for use therein” (Pantarhei Bioscience B.V., priority 2002, dated 2011):

Key:
human ERα = target: T1, human ERα (Homo sapiens, UniProt P03372); experiment: Competitive steroid binding assay, ERα; details: relative preference for binding to ERα protein, from Ki values
T1 sequence (P03372 1-595): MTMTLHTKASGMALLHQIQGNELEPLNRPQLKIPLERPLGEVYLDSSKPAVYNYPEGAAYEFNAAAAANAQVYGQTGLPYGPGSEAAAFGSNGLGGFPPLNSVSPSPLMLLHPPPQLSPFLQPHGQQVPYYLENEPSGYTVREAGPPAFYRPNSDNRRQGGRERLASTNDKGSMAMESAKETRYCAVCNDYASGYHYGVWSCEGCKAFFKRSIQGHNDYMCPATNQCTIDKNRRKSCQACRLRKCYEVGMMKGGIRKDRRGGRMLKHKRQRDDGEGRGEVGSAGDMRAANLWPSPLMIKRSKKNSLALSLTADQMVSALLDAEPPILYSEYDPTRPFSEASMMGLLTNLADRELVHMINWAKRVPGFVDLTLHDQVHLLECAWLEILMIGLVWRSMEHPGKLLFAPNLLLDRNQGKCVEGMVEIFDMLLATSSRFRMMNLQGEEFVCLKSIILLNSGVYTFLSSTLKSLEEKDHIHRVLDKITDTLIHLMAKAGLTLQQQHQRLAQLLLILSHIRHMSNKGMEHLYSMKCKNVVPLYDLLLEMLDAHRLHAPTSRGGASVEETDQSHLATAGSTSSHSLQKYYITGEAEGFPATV

[1] = target: T2, human sex Hormone Binding Globulin (SHBG) (Homo sapiens, UniProt P04278); experiment: Competitive steroid-binding assay for SHBG
T2 construct: made in house; host or cells: transgenic mouse (serum)
T2 sequence (P04278 30-402): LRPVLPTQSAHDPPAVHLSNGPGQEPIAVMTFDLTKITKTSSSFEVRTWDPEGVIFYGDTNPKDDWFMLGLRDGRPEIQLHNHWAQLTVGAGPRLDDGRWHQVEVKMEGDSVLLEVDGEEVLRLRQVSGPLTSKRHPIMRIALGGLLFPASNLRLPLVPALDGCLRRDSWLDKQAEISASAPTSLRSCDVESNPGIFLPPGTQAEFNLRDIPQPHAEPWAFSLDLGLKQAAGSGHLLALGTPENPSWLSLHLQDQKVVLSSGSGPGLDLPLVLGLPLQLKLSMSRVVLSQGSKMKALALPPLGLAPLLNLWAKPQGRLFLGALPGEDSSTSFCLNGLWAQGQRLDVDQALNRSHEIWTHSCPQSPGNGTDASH
Procedure: Human SHBG was treated for 30 min at room temperature with a dextran-coated charcoal (DCC) suspension in phosphate buffered saline (PBS) to remove any steroid ligand. After centrifugation (2,000×g for 10 min) to sediment the DCC, the supernatant containing the human SHBG was diluted in PBS to a concentration of 1 nM based on its steroid binding capacity.
The average amounts of [^3H]labeled ligands bound to SHBG at each concentration of competitor (B) were expressed as a percentage of the average amounts of [^3H]labeled ligands bound to SHBG in the absence of competitor (B0), and were plotted against the concentration of competitor in each assay tube.

[2] = tested on: B10.PL mice with experimental autoimmune encephalomyelitis (EAE); experiment: MBP induced EAE in B10.PL mice; format: in vivo, mouse
[3] = tested on: male DBA/1 mice with collagen induced arthritis (CIA); experiment: Collagen induced arthritis (CIA) in male DBA/1 mice, oral treatment; format: in vivo, mouse; details: for average day of disease onset (arthritis): vehicle 25.4±0.64
Procedure: The ability of estetrol to alleviate the severity of immune mediated disorders and its possible side-effects were evaluated and compared with dexamethasone in mice developing collagen induced arthritis (CIA), which is another experimental system of autoimmune and chronic inflammatory disease, representing human arthritic diseases, particularly rheumatoid arthritis (RA).
Arthritis was induced in male DBA/1 mice using a two-step immunization protocol (Joosten et al., “Dual role of IL-12 in early and late stages of murine collagen type II arthritis”. J Immunol 1997; 159:4094-4102; Joosten et al., “IL-1β blockade prevents cartilage and bone destruction in murine type II collagen-induced arthritis, whereas TNFα blockade only ameliorates joint inflammation”. J Immunol 1999; 163:5049-55). This strain is highly susceptible to CIA induced with bovine type II collagen. On day 0, mice were immunized with bovine type II collagen (100 μg) emulsified in Freund's complete adjuvant (four subcutaneous injections in the back). On day 21, mice were boosted with an i.p. injection of 100 μg collagen type II diluted in PBS.
The effect of oral treatment with estetrol on collagen-induced arthritis was studied in a 6-week study design. From day 22 until the end of the study (day 42), the animals were treated once daily with vehicle (hydroxypropyl-beta-cyclodextrin in a 20% wt/vol solution in water) serving as negative control or four different dosages of estetrol (3 mg/kg, 1 mg/kg, 0.3 mg/kg and 0.1 mg/kg). Dexamethasone (1 mg/kg), was chosen as a positive control because it is a well studied corticosteroid that reduces swelling and inflammation and is used in a variety of disorders such as skin diseases (psoriasis, hives), allergic conditions, breathing problems, cancer, blood disorders (anemia), digestive problems, eye disorders and for the treatment of arthritis. Although effective as an anti-inflammatory agent, dexamethasone is also known to induce a number of side effects, which amongst others include in humans the induction of osteoporosis, reduced adrenal function, dizziness, nausea, indigestion, increased appetite, weight gain due to enhanced water retention, weakness and/or sleep disturbances. In addition, systemic dexamethasone treatment in rodents results in strong catabolic effects that can be easily observed as weight loss (Orzechowski et al. 2002, “Rats with a glucocorticoid-induced catabolic state show symptoms of oxidative stress and spleen atrophy: the effects of age and recovery”. J Vet Med A Physiol Pathol Clin Med; 49:256-63).
All groups used in the study consisted of 13 mice. During the study animals were weighed and monitored for clinical signs of arthritis. Scoring of disease severity (clinical arthritis score) was performed according to scoring system described by Joosten et al. 1997 (J. Immunol., 159:4094-4102) and Joosten et al. 1999 (J. Immunol., 163:5049-55).
Basic statistical analyses were performed as follows: The significance of differences between all treatment groups in the main clinical outcome parameters was tested using analysis of variance (ANOVA). Each significant ANOVA was followed by post hoc Tukey tests to determine the significance of the difference between each treatment group and the control group. Furthermore, linear regression analysis was used to study the dose-dependency of the effects of treatment with estetrol. All statistical analysis were performed using statistical software program SPSS 10.0 for Windows (SPSS Inc., Chicago, Ill., USA).

[4] = ovariectomized female B10.PL mice, sc and oral 0.1-3.0 mg/kg/day, 40 days

**Q.** For `C[C@]12CC[C@@H]3c4ccc(O)cc4CC[C@H]3[C@@H]1[C@@H](O)[C@@H](O)[C@@H]2O` [E4, 1,3,5 (10)-estratrien-3,15α,16α,17β-tetrol], which “Relative ERα/ERβ preference” value (human ERα) is on record?
**A.** Its value is 400%.

**Q.** What about the “binding to human SHBG” value ([1]; [3H]DHT as labeled ligand) of the same compound?
**A.** Its value is “does not bind at all”.

**Q.** What about the “binding to human SHBG” value ([1]; [3H]estradiol as labeled ligand) of the same compound?
**A.** Its value is “does not bind at all”.

**Q.** What about the “relative binding affinity for human SHBG” value ([1]; comparison among tested steroids, order ethinylestradiol, 17β-estradiol, testosterone, 5α-dihydrotestosterone) of the same compound?
**A.** Its value is “negligible”.

**Q.** What about the “symptoms and severity of EAE” value ([2]; non-castrated female and male B10.PL mice, daily sc and/or oral) of the same compound?
**A.** The value was “dose-dependently alleviate symptoms and severity of EAE”.

**Q.** And the “number of afflicted animals and/or severity of EAE symptoms” value [2, 4]?
**A.** Its value is “dose-dependently reduced”.

**Q.** And the “onset of EAE disease symptoms” value [2, 4]?
**A.** Its value is “dose-dependent effects in delaying the onset of EAE disease symptoms”.

**Q.** And the “average day of disease onset (arthritis)” value ([3]; oral 0.1 mg/kg)?
**A.** Its value is 25.8 days.

**Q.** What about the “average day of disease onset (arthritis)” value ([3]; oral 0.3 mg/kg) of the same compound?
**A.** Its value is 26.0 days.

**Q.** And the “increase in disease incidence versus vehicle” value ([3]; oral 1.0 mg and 3.0 mg/kg groups)?
**A.** The value was “clearly delayed”.

**Q.** What about the “average day of disease onset (arthritis)” value ([3]; oral 1.0 mg/kg) of the same compound?
**A.** The value was 28.2 days.

**Q.** What about the “body weight, % of initial weight (day 21)” value (“body weight, %” below) ([3]; oral 3.0 mg/kg, day 28) of the same compound?
**A.** The value was 99.3%.

**Q.** And the “body weight, %” value ([3]; oral 3.0 mg/kg, day 35)?
**A.** Its value is 96.7%.

**Q.** And the “body weight, %” value ([3]; oral 3.0 mg/kg, day 42)?
**A.** The value was 97.9%.

**Q.** What about the “average day of disease onset (arthritis)” value ([3]; oral 3.0 mg/kg) of the same compound?
**A.** The value was 30.7 days.

**Q.** And the “average cumulative arthritis score” value ([3]; oral 0.1-3 mg/kg, day 21 to 42)?
**A.** The value was “dose-dependently reduced and significantly different as compared to vehicle-treated animals”.

**Q.** What about the “development of macroscopical arthritis score” value ([3]; oral 0.1-3 mg/kg, day 22-42) of the same compound?
**A.** Its value is “dose-dependently reduced”.

**Q.** What about the weight loss ([3]; oral, lower three doses (0.1, 0.3 and 1.0 mg/kg)) of the same compound?
**A.** The weight loss was “comparable to the negative and positive control animal groups”.
